{"source": "patent US20090104177A1", "about": "“PEPTIDES FOR INHIBITING THE INTERACTION OF PROTEIN KINASE A AND PROTEIN KINASE A ANCHOR PROTEINS” (FORSCHUNGSVERBUND BERLIN E.V., priority 2004, published 2009)", "key": {"RIIα subunits of the PKA": {"target": "RIIα subunits of the PKA (Homo sapiens, UniProt P13861)", "sequence (P13861 whole entry)": "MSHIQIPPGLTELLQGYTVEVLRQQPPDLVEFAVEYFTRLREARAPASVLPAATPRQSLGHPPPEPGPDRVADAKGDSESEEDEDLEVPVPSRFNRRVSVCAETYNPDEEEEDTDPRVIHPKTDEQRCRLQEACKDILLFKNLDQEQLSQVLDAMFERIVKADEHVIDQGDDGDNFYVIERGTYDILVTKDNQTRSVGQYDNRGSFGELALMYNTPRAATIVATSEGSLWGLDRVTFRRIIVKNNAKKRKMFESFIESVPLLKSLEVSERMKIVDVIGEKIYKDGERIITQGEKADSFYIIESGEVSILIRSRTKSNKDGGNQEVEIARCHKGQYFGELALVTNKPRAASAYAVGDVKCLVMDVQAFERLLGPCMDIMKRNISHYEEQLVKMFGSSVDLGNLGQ", "experiment": "Summary statement on RIIα binding of AKAP18δ-derived peptides", "conditions": "in words", "source_text": "We explain this by binding via hydrogen bridges (H bridges) between peptide and RII dimer (see Fig., hydrogen bridges represented by broken lines). Correspondingly, a common feature of the peptides is the minimum number (8) of amino acids forming H bridges."}, "[1]": {"target": "T1, regulatory RIIα subunits of PKA (Homo sapiens, UniProt P13861)", "T1 construct": "Prof; Dr. Friedrich W. Herberg, University of Kassel, Germany (obtained from an academic laboratory, not a vendor)", "experiment": "RII overlay of membrane-bound (SPOT) peptides, radiolabelled RIIα as probe, densitometry", "assay_type": "binding", "conditions": "human RIIα as probe; in words", "source_text": "(§1) Peptide libraries were synthesized by means of automatic SPOT synthesis on Whatman 50 cellulose membranes according to standard protocols using Fmoc chemistry and AutoSpot Robot ATE 222 (Intavis Bioanalytical Instruments AG, Cologne). The protective groups of the amino acid side chains were removed using a mixture of trifluoroacetic acid (TFA) in dichloromethane (DCM) (Frank, 1992; Kramer and Schneider-Mergener, 1998). For control, spots (about 50 nmol of peptide per spot) were cut from the cellulose membrane, removed from the membrane by treatment with 0.05 M NaOH, and analyzed using HPLC and MALDI-TOF mass spectrometry.\n(§2) • 1. Regulatory RIIα (human) and RIIβ (rat) subunits of PKA, obtained from Prof. Dr. Friedrich W. Herberg, University of Kassel, Germany. • 2. Catalytic subunits of PKA, Promega, Mannheim, Germany, Order No. V5161 • 3. [γ-^32P]ATP, 5000 Ci/mmol, Amersham Biosciences, Brunswick, Germany, Order No. AA0018 • 4. Sephadex G 50, medium Pharmacia, Order No. 17-0043-01 • 5. Phosphate-buffered saline (PBS)\n(§3) The ATP concentration was adjusted to 10 μM by addition of non-radioactive ATP (addition of 5 μl of a 1 mM solution). The batch was incubated on ice for another 50 min.\n(§4) The reaction was quenched by adding dextran blue and removing free nucleotides. The free ATP was removed on a Sephadex G50 column.\n(§5) Non-incorporated nucleotides were separated from the RII subunits by fractionation on Sephadex G 50 columns. • 1. Swelling of the Sephadex G 50 material: 20 g thereof was allowed to swell in 400 ml of PBS at room temperature overnight. Non-settled material was subsequently removed with a Pasteur pipette. The swollen material was aliquoted in 50 ml Falcon tubes and stored at 4° C. For preservation, sodium azide was added to make a final concentration of 0.01%. • 2. The material was poured into a 10 ml sterile disposable pipette sealed with a glass sphere. To settle the column bed, 50 ml of PBS containing 1 mg/ml BSA (bovine serum albumin) was allowed to pass.\n(§6) Until used, the column was sealed with parafilm at the top thereof. • 3. The labelled RII subunits (500 μl), together with dextran blue (70 μl of a 20 mg/ml solution), were applied on the column (overall volume=570 μl). • 4. The sample was allowed to migrate into the matrix, followed by filling up with PBS. • 5. A short time before the dextran blue was eluted, collection of fractions was begun (2 fractions of 1.5 ml each, the other fractions 1 ml each). • 6. To determine the incorporation of ^32P, 1% (5.7 μl) of sample upstream of the column (corresponding to 1% of the radioactivity employed) and 3 μl of each fraction were used. • 7. The fractions of the first peak including the probe were combined. The incorporation rate in % was calculated and the specific activity (cpm/μg of protein) was determined.\n(§7) • 1. The proteins (40 μg) were separated by means of SDS-PAGE and transferred on a PVDF membrane (PVDF: polyvinylidene fluoride) using a semi-dry electroblotting procedure. The membrane-associated proteins were stained with Ponceau S in order to identify the marker proteins on the membrane. Destaining was effected using TBS. • 2. The membrane was incubated in Blotto/BSA at 4° C. for 16 hours:\n(§8) • 3. Blotto/BSA was replaced with fresh one and ^32P-labelled RII subunits were added (10^5 cpm/ml). This was incubated for 4-6 h at room temperature. • 4. The membrane was washed for 4×15 min in Blotto/BSA and for 2×10 min in 10 mM potassium phosphate buffer, pH 7.4, 0.15 M NaCl. • 5. RII-binding proteins were detected by exposition on a phosphoimager plate.\n(§9) Identification of AKAP18δ-derived peptides inhibiting the interaction of AKAP proteins with the regulatory RIIα and RIIβ subunits of PKA. A: Peptides derived from the PKA binding domain of AKAP18δ were synthesized on two membranes. The membranes were incubated with radiolabelled regulatory RIIα (upper row) or RIIβ subunits (row below) of the PKA (RII overlay experiment). […]"}, "[2]": {"target": "T2, regulatory RIIβ subunits of PKA (Rattus norvegicus, UniProt P12369)", "T2 construct": "Prof; Dr. Friedrich W. Herberg, University of Kassel, Germany (obtained from an academic laboratory, not a vendor)", "experiment": "RII overlay of membrane-bound (SPOT) peptides, radiolabelled RIIβ as probe, densitometry", "assay_type": "binding", "conditions": "in words", "source_text": "as §1, §2, §3, §4, §5, §6, §7, §8, §9"}, "human RIIα subunits": {"target": "human RIIα subunits (Homo sapiens, UniProt P13861)", "sequence (P13861 whole entry)": "as above", "experiment": "Surface plasmon resonance measurement of peptide binding to RIIα"}, "RIIβ subunits from rats": {"target": "RIIβ subunits from rats (Rattus norvegicus, UniProt P12369)", "sequence (P12369 whole entry)": "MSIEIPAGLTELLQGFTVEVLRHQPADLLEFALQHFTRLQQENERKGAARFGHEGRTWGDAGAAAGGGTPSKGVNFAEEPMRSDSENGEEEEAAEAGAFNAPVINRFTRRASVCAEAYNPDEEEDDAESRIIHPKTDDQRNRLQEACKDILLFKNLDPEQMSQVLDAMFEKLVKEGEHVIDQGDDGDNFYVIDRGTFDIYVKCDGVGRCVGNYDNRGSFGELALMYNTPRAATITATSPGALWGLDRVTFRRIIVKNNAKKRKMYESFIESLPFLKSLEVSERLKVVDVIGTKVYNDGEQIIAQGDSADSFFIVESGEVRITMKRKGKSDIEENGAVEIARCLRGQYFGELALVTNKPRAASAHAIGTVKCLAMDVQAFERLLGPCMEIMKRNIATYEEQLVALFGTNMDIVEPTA", "experiment": "Surface plasmon resonance measurement of peptide binding to RIIβ"}, "[3]": {"target": "murine RIIα subunit of PKA (Mus musculus, UniProt P12367)", "sequence (P12367 whole entry)": "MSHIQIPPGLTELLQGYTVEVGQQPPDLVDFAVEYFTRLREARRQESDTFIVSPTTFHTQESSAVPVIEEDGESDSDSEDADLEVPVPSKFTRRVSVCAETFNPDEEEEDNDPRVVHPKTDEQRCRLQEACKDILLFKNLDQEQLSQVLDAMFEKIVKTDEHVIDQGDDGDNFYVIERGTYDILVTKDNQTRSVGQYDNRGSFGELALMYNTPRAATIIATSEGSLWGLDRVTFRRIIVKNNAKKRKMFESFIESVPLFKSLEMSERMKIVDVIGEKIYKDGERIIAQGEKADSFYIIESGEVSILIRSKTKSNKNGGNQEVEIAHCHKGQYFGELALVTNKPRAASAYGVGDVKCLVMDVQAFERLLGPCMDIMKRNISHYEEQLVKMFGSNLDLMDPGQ", "conditions": "Alto et al. (2003); cited from earlier work"}, "[4]": {"target": "T3, regulatory RIIβ subunit of PKA (rat) (rat, UniProt P12369 1-416, 32P-labelled with the catalytic subunit of PKA when used as probe in the RII overlay experiments)", "T3 construct": "Radiolabelled probe in RII overlays; format in the surface plasmon resonance measurements is not described; also called RIIβ subunit of PKA from rats", "experiment": "RII overlay on SPOT membrane, densitometry; reference AKAP18δ-wt"}, "[5]": {"target": "T4, regulatory RIIα subunit of PKA (human) (human, UniProt P13861 1-404, 32P-labelled with the catalytic subunit of PKA when used as probe in the RII overlay experiments)", "T4 construct": "Radiolabelled probe in RII overlays; format in the surface plasmon resonance measurements is not described; also called human RIIα", "experiment": "RII overlay on SPOT membrane, densitometry; reference AKAP18δ-wt"}, "[6]": {"target": "T3, regulatory RIIβ subunit of PKA (rat)", "experiment": "RII overlay on SPOT membrane, densitometry; references AKAP18δ-L304T and AKAP18δ-L314E"}, "[7]": {"target": "T4, regulatory RIIα subunit of PKA (human)", "experiment": "RII overlay on SPOT membrane, densitometry; references AKAP18δ-L304T and AKAP18δ-L314E"}, "[8]": {"target": "T4, regulatory RIIα subunit of PKA (human)", "experiment": "RII overlay on SPOT membrane with radiolabelled RIIα"}, "[9]": {"target": "T3, regulatory RIIβ subunit of PKA (rat)", "experiment": "RII overlay on SPOT membrane with radiolabelled RIIβ"}, "[10]": {"target": "T3, regulatory RIIβ subunit of PKA (rat)", "experiment": "surface plasmon resonance"}, "[11]": {"target": "T4, regulatory RIIα subunit of PKA (human)", "experiment": "surface plasmon resonance"}, "[12]": {"target": "T4, regulatory RIIα subunit of PKA (human)", "experiment": "RII overlay: SPOT peptides on membrane, probe 32P-labelled RIIα, phosphoimager"}, "[13]": {"target": "T3, regulatory RIIβ subunit of PKA (rat)", "experiment": "RII overlay: SPOT peptides on membrane, probe 32P-labelled RIIβ, phosphoimager"}}, "note": "“Also recorded” adds a separate entry of the source. No end group written: not given here."}
{"molecule": "CC(C)C[C@H](NC(=O)[C@H](CCCNC(=N)N)NC(=O)[C@@H](NC(=O)[C@H](CC(C)C)NC(=O)[C@H](CCC(=O)O)NC(=O)[C@H](C)NC(=O)[C@H](CC(=O)O)NC(=O)[C@H](CCC(=O)O)NC(=O)[C@@H]1CCCN1)C(C)C)C(=O)N[C@@H](CO)C(=O)N[C@@H](CCCCN)C(=O)N[C@@H](CCCNC(=N)N)C(=O)N[C@@H](CC(C)C)C(=O)N[C@H](C(=O)N[C@@H](CCC(=O)O)C(=O)N[C@@H](CC(N)=O)C(=O)N[C@@H](C)C(=O)N[C@H](C(=O)N[C@@H](CCC(=O)O)C(=O)N[C@@H](CCCCN)C(=O)N[C@@H](C)C(=O)N[C@H](C(=O)N[C@@H](CCC(N)=O)C(=O)N[C@@H](CCC(N)=O)C(=O)N[C@@H](Cc1ccc(O)cc1)C(=O)O)C(C)C)C(C)C)C(C)C", "note": "[AKAP18δ-L314E]", "values": [{"measurement": "RIIα binding compared with peptides derived from natural AKAPs", "setting": "RIIα subunits of the PKA", "result": "bind stronger than any other peptide derived from natural AKAPs"}, {"measurement": "binding to RIIα subunits in RII overlay", "setting": "[1]", "result": "stronger binding; also recorded: bind strongly"}, {"measurement": "binding to RIIβ subunits in RII overlay", "setting": "[2]", "result": "stronger binding; also recorded: bind strongly"}]}
{"molecule": "AKAPIS [peptide developed by Alto et al. (2003); IS, in silico, reference compound]", "values": [{"measurement": "RIIα binding KD", "setting": "human RIIα subunits", "result": "no binding"}, {"measurement": "binding to RIIα subunits in RII overlay", "setting": "[1]", "result": "barely bind"}, {"measurement": "binding to RIIβ subunits in RII overlay", "setting": "[2]", "result": "barely bind"}, {"measurement": "RIIβ binding KD", "setting": "RIIβ subunits from rats", "result": "no binding"}, {"measurement": "Kd", "setting": "[3]", "result": 0.45, "unit": "nM"}, {"measurement": "affinity increased compared to the Ht31 peptide", "setting": "[3]", "result": 5, "unit": "times"}]}
{"molecule": "EPEDAELVRLSKRLVENAVLKAVQQYLEETQ (listed as Homo sapiens) [AKAP18δ-RI]", "values": [{"measurement": "RIIα binding compared with peptides derived from natural AKAPs", "setting": "RIIα subunits of the PKA", "result": "bind stronger than any other peptide derived from natural AKAPs"}, {"measurement": "binding to RIIα subunits in RII overlay", "setting": "[1]", "result": "weaker"}, {"measurement": "binding to RIIβ subunits in RII overlay", "setting": "[2]", "result": "weaker"}]}
{"molecule": "Ht31 (peptide)", "values": [{"measurement": "fold weaker binding than AKAP18δ-wt", "setting": "[4]", "result": 5, "unit": "fold"}, {"measurement": "fold weaker binding than AKAP18δ-wt", "setting": "[5]", "result": 5, "unit": "fold"}, {"measurement": "fold weaker binding than AKAP18δ-L304T and AKAP18δ-L314E", "setting": "[6]", "result": "5 to 6", "unit": "fold"}, {"measurement": "fold weaker binding than AKAP18δ-L304T and AKAP18δ-L314E", "setting": "[7]", "result": "5 to 6", "unit": "fold"}]}
{"molecule": "KGADLIEEAASRIVDAVIEQVKAAG [Ht31, reference compound]", "values": [{"measurement": "Kd", "setting": "human RIIα subunits", "result": 15, "unit": "nM"}, {"measurement": "Kd", "setting": "RIIβ subunits from rats", "result": 35, "unit": "nM"}, {"measurement": "Kd", "setting": "[3]", "result": 2.2, "unit": "nM"}]}
{"molecule": "PEDAELVRTSKRLVENAVLKAVQQY [AKAP18δ-L304T]", "values": [{"measurement": "Kd", "setting": "human RIIα subunits", "result": "0.3 to 0.9", "unit": "nM"}, {"measurement": "RIIα binding compared with peptides derived from natural AKAPs", "setting": "RIIα subunits of the PKA", "result": "bind stronger than any other peptide derived from natural AKAPs"}, {"measurement": "binding to RIIα subunits in RII overlay", "setting": "[1]", "result": "stronger binding; also recorded: bind strongly"}, {"measurement": "binding to RIIβ subunits in RII overlay", "setting": "[2]", "result": "stronger binding; also recorded: bind strongly"}, {"measurement": "Kd", "setting": "RIIβ subunits from rats", "result": 35, "unit": "nM"}]}
{"molecule": "ANDARLVRLPKRLVENAVLKAVQQY (Member of the substitution library of peptide 7 (row 10, peptide 12); also called peptide 10/12; No. FF)", "note": "[A18δRIIαRn3 (10/12)]", "values": [{"measurement": "binding result", "setting": "[8]", "result": "binds"}, {"measurement": "binding result", "setting": "[9]", "result": "no binding"}]}
{"molecule": "ANDARLVRLSKRLVENAVLKFVQQY (Member of the substitution library of peptide 7 (row 21, peptide 4); also called peptide 21/4; A18δRIIβRnl)", "note": "[A18δRIIβRn1 (21/4)]", "values": [{"measurement": "binding result", "setting": "[8]", "result": "no binding"}, {"measurement": "binding result", "setting": "[9]", "result": "binds"}]}
{"molecule": "PEDAELVRLSKRLPENAVLKAVQQY (Proline-substituted negative control; also called AKAP18delta-P; No. X)", "note": "[AKAP18δ-P]", "values": [{"measurement": "binding result", "setting": "[10]", "result": "no binding"}, {"measurement": "binding result", "setting": "[11]", "result": "no binding"}]}
{"molecule": "PEDAELVRLSKRLPENAPLKAVQQY (Double proline-substituted negative control; also called AKAP18delta-PP)", "note": "[AKAP18δ-PP]", "values": [{"measurement": "binding result", "setting": "[10]", "result": "no binding"}, {"measurement": "binding result", "setting": "[11]", "result": "no binding"}]}
{"molecule": "EPEDAELVRLSKRLVENAVLKAVQQYLEETQ (also called Akap18delta-RI; No. AA)", "note": "[AKAP18δ-RI]", "values": [{"measurement": "binding result", "setting": "[12]", "result": "binds"}, {"measurement": "binding result", "setting": "[13]", "result": "binds"}]}
